ChEMBL document CHEMBL5154644, “Design, Synthesis, and Structure-Activity Relationship Optimization of Pyrazolopyrimidine Amide Inhibitors of Phosphoinositide 3-Kinase γ (PI3Kγ)” (J Med Chem, 2022)

Experiments:
[1] = molecular target: T1, Phosphatidylinositol 4,5-bisphosphate 3-kinase catalytic subunit delta isoform (Homo sapiens, UniProt O00329); test: Inhibition of PI3Kdelta (unknown origin) using PIP2 as substrate preincubated for 1 hr followed by substrate addition and measured after 60 mins in presence of ATP by ADP-glo assay
T1 sequence (O00329 whole entry): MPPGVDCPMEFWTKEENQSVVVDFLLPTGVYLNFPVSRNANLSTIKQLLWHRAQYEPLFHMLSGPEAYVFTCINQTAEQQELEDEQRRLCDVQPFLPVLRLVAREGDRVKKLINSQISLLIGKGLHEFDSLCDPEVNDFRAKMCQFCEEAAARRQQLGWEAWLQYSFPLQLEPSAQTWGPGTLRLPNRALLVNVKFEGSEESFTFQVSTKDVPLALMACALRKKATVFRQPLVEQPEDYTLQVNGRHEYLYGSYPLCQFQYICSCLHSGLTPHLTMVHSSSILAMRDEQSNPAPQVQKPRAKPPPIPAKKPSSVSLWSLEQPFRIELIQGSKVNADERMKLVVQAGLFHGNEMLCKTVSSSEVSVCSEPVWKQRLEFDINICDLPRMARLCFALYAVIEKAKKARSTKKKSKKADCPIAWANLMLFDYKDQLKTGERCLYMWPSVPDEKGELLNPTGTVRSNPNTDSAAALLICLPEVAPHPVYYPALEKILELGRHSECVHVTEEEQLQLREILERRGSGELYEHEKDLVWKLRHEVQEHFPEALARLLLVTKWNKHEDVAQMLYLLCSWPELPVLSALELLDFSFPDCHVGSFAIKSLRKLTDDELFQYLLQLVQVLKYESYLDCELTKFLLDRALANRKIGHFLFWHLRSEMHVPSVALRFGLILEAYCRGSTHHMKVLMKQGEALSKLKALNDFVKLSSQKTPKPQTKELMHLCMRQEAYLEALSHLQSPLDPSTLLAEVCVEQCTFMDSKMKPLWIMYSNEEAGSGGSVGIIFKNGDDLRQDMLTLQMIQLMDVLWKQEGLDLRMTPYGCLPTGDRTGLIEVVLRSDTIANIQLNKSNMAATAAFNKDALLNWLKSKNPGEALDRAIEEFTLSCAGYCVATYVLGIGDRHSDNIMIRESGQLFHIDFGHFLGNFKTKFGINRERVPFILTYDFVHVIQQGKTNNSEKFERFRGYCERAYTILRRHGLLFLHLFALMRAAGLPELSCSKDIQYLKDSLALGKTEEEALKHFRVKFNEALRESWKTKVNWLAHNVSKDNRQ

[2] = Metabolic stability in human hepatocytes assessed as intrinsic clearance per 10^6 cells at 0.5 uM by LC-MS/MS analysis; assay type: ADME, cell-based, Hepatocyte; conditions: read-out: CLH
[3] = molecular target: Phosphatidylinositol 4,5-bisphosphate 3-kinase catalytic subunit alpha isoform (Homo sapiens, UniProt P42336); test: Inhibition of PI3Kalpha (unknown origin) using PIP2 as substrate preincubated for 1 hr followed by substrate addition and measured after 60 mins in presence of ATP by ADP-glo assay
Homo sapiens [4] = organism: Homo sapiens; test: Selectivity ratio of IC50 for inhibition of PI3Kdelta (unknown origin) to IC50 for inhibition of PI3Kgamma (unknown origin)
[5] = Metabolic stability in rat hepatocyte assessed as intrinsic clearance per 10^8 cells at 0.5 uM by LC-MS/MS analysis; assay type: ADME, cell-based; conditions: hepatocytes
CYP3A4 = CYP3A4 (Homo sapiens, UniProt P08684); test: in vitro; conditions: human liver microsomes, probe midazolam
Description: Time dependent inhibition of CYP3A4 in human liver microsomes at 10 uM using midazolam as substrate preincubated for 30 mins in presence of NADPH by LC/MS/MS analysis relative to control

[6] = molecular target: T2, Phosphatidylinositol 4,5-bisphosphate 3-kinase catalytic subunit gamma isoform (Homo sapiens, UniProt P48736); test: Inhibition of PI3Kgamma (unknown origin) using PIP2 as substrate preincubated for 1 hr followed by substrate addition and measured after 60 mins in presence of ATP by ADP-glo assay
[7] = molecular target: T2, Phosphatidylinositol 4,5-bisphosphate 3-kinase catalytic subunit gamma isoform; test: Inhibition of PI3Kgamma (unknown origin) in […] stimulated human THP-1 cells assessed as reduction in Akt phosphorylation level at Ser473 residue preincubated for 60 mins followed by rhMCP-1 stimulation and measured after 2 mins by AlphaLisa assay; assay type: cell-based
Homo sapiens [8] = organism: Homo sapiens; test: Selectivity ratio of IC50 for inhibition of PI3Kalpha (unknown origin) to IC50 for inhibition of PI3Kgamma (unknown origin)
[9] = Hepatic clearance in Sprague-Dawley rat by LC-MS/MS analysis; assay type: ADME; conditions: in vivo

T2 sequence (P48736 whole entry, canonical isoform): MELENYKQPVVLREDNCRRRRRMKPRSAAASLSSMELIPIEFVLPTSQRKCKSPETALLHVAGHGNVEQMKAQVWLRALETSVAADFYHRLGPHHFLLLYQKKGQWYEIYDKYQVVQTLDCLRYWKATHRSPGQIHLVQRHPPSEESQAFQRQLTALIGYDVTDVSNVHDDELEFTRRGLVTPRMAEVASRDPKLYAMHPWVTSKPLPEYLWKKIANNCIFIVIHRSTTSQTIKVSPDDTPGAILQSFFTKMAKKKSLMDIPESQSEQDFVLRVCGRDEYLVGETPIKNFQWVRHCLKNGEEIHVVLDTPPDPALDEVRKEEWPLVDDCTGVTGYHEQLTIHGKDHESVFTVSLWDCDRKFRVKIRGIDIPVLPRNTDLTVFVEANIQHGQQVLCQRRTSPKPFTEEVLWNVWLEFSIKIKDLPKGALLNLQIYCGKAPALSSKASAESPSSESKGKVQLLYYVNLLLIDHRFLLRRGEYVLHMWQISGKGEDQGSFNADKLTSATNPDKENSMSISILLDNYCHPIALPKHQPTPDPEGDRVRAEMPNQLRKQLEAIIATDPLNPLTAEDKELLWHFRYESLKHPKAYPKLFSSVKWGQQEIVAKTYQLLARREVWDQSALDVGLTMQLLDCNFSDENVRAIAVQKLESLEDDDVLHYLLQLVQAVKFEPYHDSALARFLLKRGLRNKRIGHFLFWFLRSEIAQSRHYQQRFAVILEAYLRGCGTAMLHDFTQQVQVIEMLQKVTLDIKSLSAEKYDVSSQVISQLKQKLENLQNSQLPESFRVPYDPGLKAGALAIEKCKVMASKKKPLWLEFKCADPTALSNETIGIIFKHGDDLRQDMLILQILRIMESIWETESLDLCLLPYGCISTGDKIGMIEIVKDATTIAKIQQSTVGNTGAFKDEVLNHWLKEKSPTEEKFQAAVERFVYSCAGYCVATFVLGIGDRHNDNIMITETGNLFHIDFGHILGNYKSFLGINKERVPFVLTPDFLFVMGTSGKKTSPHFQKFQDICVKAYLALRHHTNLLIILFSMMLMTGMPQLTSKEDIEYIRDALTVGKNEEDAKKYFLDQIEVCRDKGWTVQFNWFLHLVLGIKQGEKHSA
Phosphatidylinositol 4,5-bisphosphate 3-kinase catalytic subunit alpha isoform, sequence (P42336 whole entry, canonical isoform): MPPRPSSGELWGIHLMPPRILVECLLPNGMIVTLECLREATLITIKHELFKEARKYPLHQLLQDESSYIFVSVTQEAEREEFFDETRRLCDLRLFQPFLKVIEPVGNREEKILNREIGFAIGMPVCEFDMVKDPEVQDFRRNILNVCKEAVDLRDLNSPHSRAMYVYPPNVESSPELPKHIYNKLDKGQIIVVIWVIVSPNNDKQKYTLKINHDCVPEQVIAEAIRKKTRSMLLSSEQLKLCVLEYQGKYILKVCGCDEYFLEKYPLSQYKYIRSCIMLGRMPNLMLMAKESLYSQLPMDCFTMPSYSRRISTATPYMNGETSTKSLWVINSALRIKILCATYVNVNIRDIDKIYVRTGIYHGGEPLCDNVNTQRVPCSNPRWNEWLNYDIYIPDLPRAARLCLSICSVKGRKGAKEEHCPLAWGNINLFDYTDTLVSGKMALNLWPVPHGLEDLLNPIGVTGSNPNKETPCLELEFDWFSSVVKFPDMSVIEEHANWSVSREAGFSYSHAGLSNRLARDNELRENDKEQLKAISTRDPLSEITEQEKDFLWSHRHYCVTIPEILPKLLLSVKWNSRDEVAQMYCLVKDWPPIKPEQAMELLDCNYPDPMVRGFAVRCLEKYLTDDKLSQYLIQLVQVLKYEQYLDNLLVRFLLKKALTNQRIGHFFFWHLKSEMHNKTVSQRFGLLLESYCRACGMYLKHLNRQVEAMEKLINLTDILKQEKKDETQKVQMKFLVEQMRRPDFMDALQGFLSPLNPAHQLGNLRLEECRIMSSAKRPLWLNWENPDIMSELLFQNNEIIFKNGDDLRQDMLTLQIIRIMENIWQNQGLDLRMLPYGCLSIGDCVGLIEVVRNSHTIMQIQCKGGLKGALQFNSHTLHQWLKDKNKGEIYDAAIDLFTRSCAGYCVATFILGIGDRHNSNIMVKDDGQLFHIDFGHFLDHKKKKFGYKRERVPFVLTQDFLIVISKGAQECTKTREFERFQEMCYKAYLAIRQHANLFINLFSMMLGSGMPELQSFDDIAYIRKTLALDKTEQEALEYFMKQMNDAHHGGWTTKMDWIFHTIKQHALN
CYP3A4, sequence (P08684 whole entry, canonical isoform): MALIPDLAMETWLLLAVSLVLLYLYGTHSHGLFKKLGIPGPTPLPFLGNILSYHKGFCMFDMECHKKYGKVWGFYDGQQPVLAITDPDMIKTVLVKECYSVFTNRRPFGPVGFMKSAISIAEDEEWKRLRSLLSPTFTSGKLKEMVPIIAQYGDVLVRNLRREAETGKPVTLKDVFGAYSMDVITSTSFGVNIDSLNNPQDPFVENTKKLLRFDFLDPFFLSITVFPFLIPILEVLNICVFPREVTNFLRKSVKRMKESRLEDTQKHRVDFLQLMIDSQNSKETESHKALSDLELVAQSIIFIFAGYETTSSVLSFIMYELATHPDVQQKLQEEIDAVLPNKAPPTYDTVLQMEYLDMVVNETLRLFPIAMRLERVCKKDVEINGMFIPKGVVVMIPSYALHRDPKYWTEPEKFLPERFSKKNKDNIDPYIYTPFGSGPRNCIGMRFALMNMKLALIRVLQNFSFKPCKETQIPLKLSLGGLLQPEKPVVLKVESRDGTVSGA

Row | SMILES | IC50 [1] | hepatocyte CLint at 0.5 µM [2] | IC50 [3] | Ratio IC50 (Homo sapiens [4]) | hepatocyte intrinsic clearance [5] | inhibition at 30 min, 10 µM (CYP3A4) | IC50 [6] | IC50 [7] | Ratio IC50 (Homo sapiens [8]) | CLH [9]
1 | COc1cc(-c2ccn3nc(N)c(C(=O)NC4CC4)c3n2)cc2c1C(=O)N([C@@H](C)C1CC1)C2 | 459 nM | 1.81 µL/min/1e6 cells | 281 nM | 122 | 2.07 µL/min | 28% | 3.8 nM | 121 nM | 74 | 
2 | C[C@@H](C1CC1)N1Cc2cc(-c3ccn4nc(N)c(C(=O)NC5CC5)c4n3)cc(Cl)c2C1=O | 1430 nM | < 1.2 µL/min/1e6 cells | 686 nM | 589 | 2.89 µL/min | 36% | 2.4 nM | 103 nM | 282 | 
3 | Cc1cc(-c2ccn3nc(N)c(C(=O)N[C@H]4C[C@H](O)C4)c3n2)cc2c1C(=O)N([C@@H](C)C1CC1)C2 |  | 11.3 µL/min/1e6 cells |  |  | 15.7 µL/min | 14% |  |  |  | 2.4 L/h/kg
4 | Cc1cc(-c2ccn3nc(N)c(C(=O)N[C@H]4CC[C@](C)(O)CC4)c3n2)cc2c1C(=O)N([C@@H](C)C1CC1)C2 | 155 nM | 8.7 µL/min/1e6 cells | 240 nM | 53 | 22.1 µL/min |  | 3 nM | 76 nM | 82 | 4.3 L/h/kg
5 | C[C@@H](C1CC1)N1Cc2cc(-c3ccn4nc(N)c(C(=O)NC5CC5)c4n3)cc(NS(C)(=O)=O)c2C1=O | 417 nM | < 1.2 µL/min/1e6 cells | 590 nM | 157 | < 1.2 µL/min | 37% | 2.7 nM | 37 nM |  | 0.7 L/h/kg
6 | CC(C)S(=O)(=O)c1cc(-c2ccn3nc(N)c(C(=O)NC4CC4)c3n2)cc2c1C(=O)N([C@@H](C)C1CC1)C2 | 714 nM | 2.43 µL/min/1e6 cells | 952 nM |  | < 1.2 µL/min |  |  |  |  | 1.7 L/h/kg
7 | Cc1cc(-c2ccn3ncc(C(=O)Nc4cnn(C)c4)c3n2)cc2c1C(=O)N([C@@H](C)C1CC1)C2 |  | 7.31 µL/min/1e6 cells |  |  | 12.2 µL/min | 33% | 34.1 nM | 638 nM |  | 2.9 L/h/kg
8 | C[C@@H](C1CC1)N1Cc2cc(-c3ccn4nc(N)c(C(=O)NC5CC5)c4n3)cc(OC(F)F)c2C1=O | 2120 nM | 40.4 µL/min/1e6 cells | 602 nM | 907 | 12.6 µL/min | 16% | 1.8 nM | 71 nM | 330 | 
9 | C[C@@H](C1CC1)N1Cc2cc(-c3ccn4nc(N)c(C(=O)NC5CC5)c4n3)cc(C3CC3)c2C1=O | 829 nM | 4.23 µL/min/1e6 cells | 572 nM | 178 | 2.97 µL/min | 38% | 4.7 nM | 66 nM | 122 | 
10 | CC(C)[C@H](N1Cc2cc(-c3ccn4nc(N)c(C(=O)NC5CC5)c4n3)cc(NS(C)(=O)=O)c2C1=O)C(F)(F)F | 2750 nM | 6.52 µL/min/1e6 cells | 3680 nM | 323 | 3.65 µL/min | 55% | 8.5 nM | 150 nM |  | 
11 | CNS(=O)(=O)c1cc(-c2ccn3nc(N)c(C(=O)NC4CC4)c3n2)cc2c1C(=O)N([C@@H](C)C1CC1)C2 | 256 nM | 4.46 µL/min/1e6 cells | 519 nM | 96 | 4.91 µL/min | 34% | 2.7 nM | 36 nM |  | 2.1 L/h/kg
